Experiment [1] concerns the target T1, SIK2 (Homo sapiens, UniProt Q9H0K1).
T1 construct: purchased DiscoveRx (Fremont, CA)
Description: KinomeScan. It counts as binding. Conditions: read-out: % Control.

In experiment [2] the target is T2, CCK1 (Homo sapiens, UniProt P32238).
T2 construct: host or cells: Chem-1 cells with promiscuous Gα15
Description: GPCR Profiler. It counts as cell-based.

For experiment [3], the target named is CDKL1 (Homo sapiens, UniProt Q00532). Description: KinomeScan. It counts as binding. To be noted: read-out: % Control.
The target in experiment [4] is T3, FAK (Homo sapiens, UniProt Q05397).
T3 construct: purchased DiscoveRx (Fremont, CA)
Nature of the experiment: KinomeScan. Conditions: read-out: % Control. It counts as binding.

In experiment [5] the target is T4, GLP-1 (Homo sapiens, UniProt P43220).
T4 construct: host or cells: Chem-1 cells expressing Gα15
T4 sequence (P43220 24-463): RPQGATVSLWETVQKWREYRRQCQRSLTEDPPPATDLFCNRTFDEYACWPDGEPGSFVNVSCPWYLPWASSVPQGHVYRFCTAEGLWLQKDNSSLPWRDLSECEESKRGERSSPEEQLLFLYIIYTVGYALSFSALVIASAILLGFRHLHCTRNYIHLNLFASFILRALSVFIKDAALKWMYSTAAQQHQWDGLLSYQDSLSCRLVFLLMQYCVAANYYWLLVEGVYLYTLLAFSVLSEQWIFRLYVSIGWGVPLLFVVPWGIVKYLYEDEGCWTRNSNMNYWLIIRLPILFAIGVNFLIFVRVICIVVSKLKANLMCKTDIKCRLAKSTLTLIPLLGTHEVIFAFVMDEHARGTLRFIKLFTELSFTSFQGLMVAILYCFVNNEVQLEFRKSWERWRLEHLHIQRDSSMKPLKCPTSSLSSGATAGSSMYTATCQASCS
Description: GPCR Profiler. The class given is cell-based.

In experiment [6] the target is T5, NMU1 (Homo sapiens, UniProt Q9HB89).
T5 construct: host or cells: Chem-1 cells expressing Gα15
T5 sequence (Q9HB89 whole entry): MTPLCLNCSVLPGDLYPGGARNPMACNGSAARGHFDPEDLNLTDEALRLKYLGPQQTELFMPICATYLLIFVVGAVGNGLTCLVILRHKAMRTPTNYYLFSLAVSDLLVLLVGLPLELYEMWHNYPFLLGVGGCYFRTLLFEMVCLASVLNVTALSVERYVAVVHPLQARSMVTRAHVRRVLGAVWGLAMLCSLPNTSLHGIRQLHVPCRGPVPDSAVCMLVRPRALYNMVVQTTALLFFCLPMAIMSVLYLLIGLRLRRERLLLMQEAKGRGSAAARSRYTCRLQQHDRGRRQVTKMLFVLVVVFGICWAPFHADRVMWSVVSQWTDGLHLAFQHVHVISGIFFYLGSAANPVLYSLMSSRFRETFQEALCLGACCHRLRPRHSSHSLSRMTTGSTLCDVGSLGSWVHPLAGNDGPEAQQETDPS
Description: GPCR Profiler. It counts as cell-based.

Experiment [7] deals with T6, Y2 (Homo sapiens, UniProt P49146).
T6 construct: host or cells: Chem-1 cells expressing Galpha15
T6 sequence (P49146 whole entry): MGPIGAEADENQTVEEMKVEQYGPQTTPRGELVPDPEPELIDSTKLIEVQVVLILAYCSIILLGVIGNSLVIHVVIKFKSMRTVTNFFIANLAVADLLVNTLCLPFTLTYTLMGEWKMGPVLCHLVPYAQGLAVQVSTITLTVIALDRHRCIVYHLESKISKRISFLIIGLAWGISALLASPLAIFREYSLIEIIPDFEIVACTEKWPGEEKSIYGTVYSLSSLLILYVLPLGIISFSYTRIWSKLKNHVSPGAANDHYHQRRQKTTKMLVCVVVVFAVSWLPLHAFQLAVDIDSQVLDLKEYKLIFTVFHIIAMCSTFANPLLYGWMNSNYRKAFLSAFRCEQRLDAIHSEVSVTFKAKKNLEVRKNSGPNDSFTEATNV
Description: GPCR Profiler. It counts as cell-based.

Experiment [8] has as its target CSK (Homo sapiens, UniProt P41240). Nature of the experiment: KinomeScan. The class given is binding. To be noted: read-out: % Control.
Experiment [9] concerns the target T7, PIPSK1C (Homo sapiens, UniProt O60331).
T7 construct: purchased DiscoveRx (Fremont, CA)
Description: KinomeScan. It counts as binding. To be noted: read-out: % Control.

The target of experiment [10] is T8, sst4 (Homo sapiens, UniProt P31391).
T8 construct: host or cells: Chem-1 cells with Gα15
T8 sequence (P31391 whole entry, species assumed): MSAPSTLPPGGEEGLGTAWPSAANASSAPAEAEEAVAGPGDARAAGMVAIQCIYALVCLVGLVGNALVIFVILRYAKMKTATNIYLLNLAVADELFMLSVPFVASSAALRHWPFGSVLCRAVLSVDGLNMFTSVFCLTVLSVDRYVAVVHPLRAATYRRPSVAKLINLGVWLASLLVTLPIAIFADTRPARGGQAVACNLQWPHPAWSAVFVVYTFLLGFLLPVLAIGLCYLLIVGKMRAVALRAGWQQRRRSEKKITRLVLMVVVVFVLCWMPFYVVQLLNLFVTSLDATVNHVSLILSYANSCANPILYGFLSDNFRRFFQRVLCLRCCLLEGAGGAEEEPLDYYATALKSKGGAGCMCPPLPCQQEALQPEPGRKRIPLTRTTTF
Description: GPCR Profiler. It counts as cell-based.

In experiment [11] the target is T9, CysLT2 (Homo sapiens, UniProt Q9NS75).
T9 construct: host or cells: Chem-1 cells with Gα15
T9 sequence (Q9NS75 whole entry, species assumed): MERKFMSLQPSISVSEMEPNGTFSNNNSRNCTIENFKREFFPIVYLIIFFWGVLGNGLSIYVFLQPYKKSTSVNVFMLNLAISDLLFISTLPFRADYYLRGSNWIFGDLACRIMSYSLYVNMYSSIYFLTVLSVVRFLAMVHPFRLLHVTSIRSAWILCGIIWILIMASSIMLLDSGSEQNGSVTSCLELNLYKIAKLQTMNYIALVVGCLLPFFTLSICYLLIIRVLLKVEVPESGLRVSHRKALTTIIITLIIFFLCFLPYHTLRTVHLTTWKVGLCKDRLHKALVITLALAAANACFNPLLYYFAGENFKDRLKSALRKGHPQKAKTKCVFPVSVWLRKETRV
Description: GPCR Profiler. It counts as cell-based.

For experiment [12], the target named is T10, CAMK2B (Homo sapiens, UniProt Q13554).
T10 construct: purchased DiscoveRx (KinomeScan service)
Nature of the experiment: KinomeScan. The class given is binding. Conditions: read-out: % Control.

Experiment [13] deals with T11, OPRD1 (Homo sapiens, UniProt P41143).
T11 construct: host or cells: Chem-1 cells expressing Gα15
T11 sequence (P41143 whole entry, species assumed): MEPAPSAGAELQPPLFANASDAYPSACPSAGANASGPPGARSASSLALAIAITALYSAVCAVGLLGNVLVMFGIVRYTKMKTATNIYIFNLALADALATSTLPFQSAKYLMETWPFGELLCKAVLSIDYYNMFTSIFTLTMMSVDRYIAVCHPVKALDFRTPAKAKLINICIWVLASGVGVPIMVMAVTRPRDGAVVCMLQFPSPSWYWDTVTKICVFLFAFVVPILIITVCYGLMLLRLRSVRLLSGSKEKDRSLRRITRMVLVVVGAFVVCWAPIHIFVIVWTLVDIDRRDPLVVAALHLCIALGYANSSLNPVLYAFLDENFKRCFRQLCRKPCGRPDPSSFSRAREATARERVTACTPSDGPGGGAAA
Description: GPCR Profiler. It counts as cell-based.

The target in experiment [14] is T12, EPHA1 (Homo sapiens, UniProt P21709).
T12 construct: purchased DiscoveRx (Fremont, CA)
T12 sequence (P21709 26-976): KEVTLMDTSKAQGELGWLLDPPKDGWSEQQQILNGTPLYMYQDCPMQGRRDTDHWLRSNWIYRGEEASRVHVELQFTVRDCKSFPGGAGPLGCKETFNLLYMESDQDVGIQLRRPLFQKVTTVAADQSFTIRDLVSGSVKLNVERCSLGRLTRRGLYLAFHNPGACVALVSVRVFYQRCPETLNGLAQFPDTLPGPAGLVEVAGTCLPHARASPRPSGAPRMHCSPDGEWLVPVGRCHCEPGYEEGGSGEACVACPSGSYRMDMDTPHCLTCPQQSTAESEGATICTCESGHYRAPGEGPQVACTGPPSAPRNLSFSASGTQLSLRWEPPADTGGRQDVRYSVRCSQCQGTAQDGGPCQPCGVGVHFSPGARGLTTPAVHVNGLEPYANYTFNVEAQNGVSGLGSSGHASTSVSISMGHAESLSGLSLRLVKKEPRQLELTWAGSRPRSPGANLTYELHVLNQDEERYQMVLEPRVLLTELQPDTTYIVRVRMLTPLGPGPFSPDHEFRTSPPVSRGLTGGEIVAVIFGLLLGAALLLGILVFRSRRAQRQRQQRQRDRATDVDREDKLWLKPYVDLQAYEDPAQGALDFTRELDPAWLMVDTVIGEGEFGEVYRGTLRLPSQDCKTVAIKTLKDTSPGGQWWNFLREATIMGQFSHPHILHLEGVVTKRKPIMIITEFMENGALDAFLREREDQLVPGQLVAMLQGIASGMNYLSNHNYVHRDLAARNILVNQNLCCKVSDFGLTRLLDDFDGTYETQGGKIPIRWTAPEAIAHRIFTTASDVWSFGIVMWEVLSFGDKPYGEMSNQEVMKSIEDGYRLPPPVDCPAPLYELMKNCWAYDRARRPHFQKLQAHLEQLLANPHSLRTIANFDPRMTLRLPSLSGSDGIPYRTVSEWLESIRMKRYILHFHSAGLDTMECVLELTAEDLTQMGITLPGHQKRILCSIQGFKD
Nature of the experiment: KinomeScan. It counts as binding. Conditions: read-out: % Control.

Experiment [15] addresses T13, RIPK5 (Homo sapiens, UniProt Q6XUX3).
T13 construct: purchased DiscoveRx (Fremont, CA)
Description: KinomeScan. To be noted: read-out: % Control. It counts as binding.

For experiment [16], the target named is T14, AKT3 (Homo sapiens, UniProt Q9Y243).
T14 construct: purchased DiscoveRx (Fremont, CA)
Nature of the experiment: KinomeScan. The class given is binding. Conditions: read-out: % Control.

The test system of experiment [17] is U138 spheroids. Description: GBM spheroid assay. It counts as cell-based, human. How it is done:
One thousand cells per well were plated in an ultra-low attachment, round-bottomed, 96-well plate, and spheroids were allowed to form for 3 days. Wells were then exposed to concentrations of vehicle, OGM2 or TMZ or a combination for 3 days. Spheroids were imaged in brightfield at 10× using z-stacks that were collapsed into z-projections in the Gen5 software using the LionheartFx (BioTek™). Automated measurements of the spheroid area were obtained using Gen5 software.
Tumor spheroid cultures are a more physiological model of tumor growth than typical 2D cell culture. Temozolomide sensitive U87 (FIG. 20A) and Temozolomide insensitive U138 (FIG. 20B) glioblastoma cell lines were plated in low attachment round bottom 96-well plates and allowed to form tumor spheroids for 3 days (T0). At T0, spheroids were imaged using Lionheart™ (HCS) High-Content Imaging Systems (Biotek™) and then were exposed to increasing doses of either Temozolomide or OGM2. After 5 days of treatment the spheroids were imaged again (T5). The size (area) of the spheroids after 5 days of treatment was quantified, and the average size of the spheroids at TO is depicted in red.

Experiment [18] relates to K-562. Description: Cell Titer-Glo viability, Chronic myelogenous leukemia. The class given is cell-based. How it is done:
OGM2 kills wide variety of cancer cell types. Cell sensitivity can be classified in to Very Sensitive (LC50<2 μM), Sensitive (LC50=2 to 10 μM), Mildly Sensitive (LC50>10 μM), and Refractory (no killing at 10 μM). The listed established cell were incubated with OGM2 at 2 μM or 10 μM for 72 hours under standard cell culture conditions, and relative cell number was assessed using Cell Titer-Glo Luminescent Cell Viability Assay (Promega™) following the manufacturer's instructions. Luminescence was determined using a Cytation 5 reader and Gen5 software package (BioTek™).
Cancer cells, which are very sensitive to killing by OGM2 (LCs <2 μM), with reported mRNA expression of GPR68 and the related proton sensing receptor GPR4. LC50's (concentrations causing 50% lethality) were determined using CellTiter-Glo (Promega™, G7570). Cells were plated in 12-well plates (CELLTREAT Scientific Products, 229112) in 1 ml of DMEM with high glucose, GlutaMAX, HEPES, or RPMI 1640 with Penicillin-Streptomycin (ThermoFisher™, 10564029, 11875119 and 15140122) and 10% FBS. Cells were incubated overnight at 37° C. in 5% CO2. Then 1 mL of fresh media was added with DMSO, OGM, or positive control (Erastin; APExBIO Technology, LLC, B1524) and cells incubated for 3 days. On the third day, all media was removed, cells were rinsed with 1×PBS, PBS was removed, and 200 μL of 1× Passive Lysis Buffer (Promega™, E1941) was added to each well. […]. Subsequently, 20 μL of lysate was added to 100 μL CellTiter-Glo™ reagent on a LUMITRAC 200 plate (Greiner™ bio-one, 82050-726). Plates were briefly spun down and read on a GloMax-Multi Detection System (Promega™).
The cells listed in the tables above were incubated with OGM2 at 2 μM or 10 μM for 72 hours under standard cell culture conditions, and relative cell number was assessed using Cell Titer-Glo Luminescent Cell Viability Assay (Promega™) following the manufacturer's instructions. Luminescence was determined using a Cytation 5 reader and Gen5 software package (BioTek™). RNA expression of GPR68 and GPR4 in the corresponding cancer cell lines are listed, according to the publicly available The Human Protein Atlas version 22.0 and Ensembl version 103.38 (see proteinatlas.org). The consensus normalized expression value (“nTPM”=normalize transcript per million) was calculated as the maximum nTPM value for each gene in the two data sources.
(In general: ATP-based viability assays read luminescence as a measure of living cells.)

T2 sequence (P32238 whole entry): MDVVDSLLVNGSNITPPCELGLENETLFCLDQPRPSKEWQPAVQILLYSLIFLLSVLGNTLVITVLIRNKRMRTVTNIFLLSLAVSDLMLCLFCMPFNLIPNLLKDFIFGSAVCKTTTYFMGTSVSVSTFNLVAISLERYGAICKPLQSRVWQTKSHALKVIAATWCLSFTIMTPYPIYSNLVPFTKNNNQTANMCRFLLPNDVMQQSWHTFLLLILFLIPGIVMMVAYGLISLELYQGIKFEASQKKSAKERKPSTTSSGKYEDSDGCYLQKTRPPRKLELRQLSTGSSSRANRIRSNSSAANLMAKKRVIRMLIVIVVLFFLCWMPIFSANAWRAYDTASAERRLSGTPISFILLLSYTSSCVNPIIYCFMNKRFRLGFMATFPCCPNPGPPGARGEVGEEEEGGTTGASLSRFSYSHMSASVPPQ
Sequence of CSK (P41240 whole entry): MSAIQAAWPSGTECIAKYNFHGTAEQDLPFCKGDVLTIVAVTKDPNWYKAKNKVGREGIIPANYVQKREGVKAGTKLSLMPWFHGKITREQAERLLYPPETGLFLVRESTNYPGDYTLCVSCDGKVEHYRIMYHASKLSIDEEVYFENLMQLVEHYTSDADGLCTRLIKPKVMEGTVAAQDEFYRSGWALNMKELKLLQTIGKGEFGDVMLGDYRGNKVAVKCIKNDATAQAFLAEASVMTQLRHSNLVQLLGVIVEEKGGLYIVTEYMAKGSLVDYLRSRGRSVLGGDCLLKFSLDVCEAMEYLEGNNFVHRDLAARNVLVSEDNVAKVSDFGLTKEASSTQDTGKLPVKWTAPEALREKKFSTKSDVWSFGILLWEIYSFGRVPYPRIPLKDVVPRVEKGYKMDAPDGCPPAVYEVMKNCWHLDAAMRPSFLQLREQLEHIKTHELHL
T7 sequence (O60331 whole entry): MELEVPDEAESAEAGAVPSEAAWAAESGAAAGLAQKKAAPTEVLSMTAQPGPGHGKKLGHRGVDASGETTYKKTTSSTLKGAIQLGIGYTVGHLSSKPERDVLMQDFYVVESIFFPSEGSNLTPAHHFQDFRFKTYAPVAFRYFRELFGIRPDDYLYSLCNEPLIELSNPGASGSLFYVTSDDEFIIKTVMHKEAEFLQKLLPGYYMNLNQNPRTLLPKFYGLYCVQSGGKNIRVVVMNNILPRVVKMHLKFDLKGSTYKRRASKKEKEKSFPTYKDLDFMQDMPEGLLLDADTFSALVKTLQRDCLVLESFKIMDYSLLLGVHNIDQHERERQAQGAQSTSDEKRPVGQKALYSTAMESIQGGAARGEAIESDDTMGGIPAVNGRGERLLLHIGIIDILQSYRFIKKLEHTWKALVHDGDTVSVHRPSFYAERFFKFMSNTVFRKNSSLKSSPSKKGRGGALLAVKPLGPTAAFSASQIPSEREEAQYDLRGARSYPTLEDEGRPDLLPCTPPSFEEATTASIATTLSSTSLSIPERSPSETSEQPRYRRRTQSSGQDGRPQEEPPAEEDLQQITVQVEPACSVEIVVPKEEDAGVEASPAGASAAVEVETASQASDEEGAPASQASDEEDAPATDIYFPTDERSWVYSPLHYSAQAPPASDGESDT

On to `CCc1ccc2c(c1)C1(NN=C(c3cccc4ccccc34)S1)C(=O)N2` (stereo not shown) [OGM1, 5-ethyl-5′-naphthalen-1-ylspiro[1H-indole-3,2′-3H-1,3,4-thiadiazole]-2-one], for which the remaining binding at 10 µM in [1] worked out at 100%; in [3], 88%; in experiment [4], 88%; in experiment [8], 83%; in experiment [9], 97%; in [12], 60%. The values for the remaining binding at 10 µM in experiment [14], in [15] and in [16] were 92%, 56% and 100%, respectively. Besides, the Antagonism in [2] (10 uM) is recorded as 1.9; in experiment [5] (10 uM) it was 2.1; in experiment [6] (10 uM), 6.2; in experiment [7] (10 uM), −0.6; in [10] (10 uM) it was −2.6; in experiment [11] (10 uM), −7.1. Further, the Antagonism in [13] (10 uM) was 7.4. Besides, the Agonism is recorded as 0.8 in experiment [2] (12.5 uM); −0.3 in experiment [5] (12.5 uM); 1.8 in experiment [6] (12.5 uM); 2.5 in experiment [7] (12.5 uM); −1.1 in experiment [10] (12.5 uM); −0.3 in [11] (12.5 uM). In addition, the Agonism in experiment [13] (12.5 uM) is listed as −0.1.
Take `CCc1ccc2c(c1)C1(NN=C(c3ccccc3)S1)C(=O)N2` (stereo not shown) [OGM2]: the “growth of 3D spheroids” value in experiment [17] was “significantly decreased the growth of U138 3D spheroids”. For the same compound, the Class entry in experiment [18] is on record as “Sensitive (Sensitive (LC50=2 to 10 μM))”. Further, in experiment [18] (72 hours), the “% Survival 2 μM OGM” value is 56.7% and the “% Survival 10 μM OGM” value is 37.0%. Also, the CC50 in [18] (Homo sapiens, K562, 72 hours, read-out: LC50 (the source's name)) is 2 to 10 µM.
